These results are taken from patent publication US20200147055A1, “COMPOSITIONS AND METHODS FOR TREATING DRY EYE SYNDROME DELIVERING ANTIBIOTIC MACROLIDE” (Eximore Ltd., priority 2017, published 2020).

The series in a line: In vitro release of Tacrolimus from plug samples into releasing medium buffer (PBS + BAK + Triton) at 37 degrees Celsius, HPLC-MS-MS. It is filed as physicochemical. The following applies: implants contain approximately 900 micrograms of TAC. On the procedure:
In an example of an embodiment of the composition of the present invention, plug samples containing Tacrolimus were prepared. Samples were incubated at 37 degrees Celsius for varying times to determine time effect on Tacrolimus release profile from the sample into a polar solution (PBS).
The solution included the following: 0.01M PBS, 0.005% BAK, and 0.1% TRITON X-100.
Composite weight 3 mg with 30% Tacrolimus.
Development of HPLC-MS-MS Method for Tacrolimus (TCM)
Table 2 provides a list of samples used in the sustained release profile and cumulative sustained release profile illustrated in FIGS. 4 and 5, respectively. Samples 19-1 to 19-8 are Type A, COM TAC 1. Samples 19-9 to 19-16 are Type A, COM TAC 2. Samples 19-17 to 19-24 are Type B, EPO TAC 1. Samples 19-25 to 19-32 are Type B, EPO TAC 2.

Each structure is given as a SMILES string.

For `C=CC[C@@H]1/C=C(\C)C[C@H](C)C[C@H](OC)[C@H]2O[C@@](O)(C(=O)C(=O)N3CCCC[C@H]3C(=O)O[C@H](/C(C)=C/[C@@H]3CC[C@@H](O)[C@H](OC)C3)[C@H](C)[C@@H](O)CC1=O)[C@H](C)C[C@@H]2OC` [TAC, (3S,4R,5S,8R,9E,12S,14S,15R,16S,18R,19R,26aS)-5,19-dihydroxy-3-{(1E)-1-[(1R,3R,4R)-4-hydroxy-3-methoxycyclohexyl]prop-1-en-2-yl}-14,16-dimethoxy-4,10,12,18-tetramethyl-8-(prop-2-en-1-yl)-5,6,8,11,12,13,14,15,16,17,18,19,24,25,26,26a-hexadecahydro-3H-15,19-epoxypyrido[2,1-c][1,4]oxazacyclotricosine-1,7,20,21(4H,23H)-tetrone], the “estimated duration of release in vitro” value is recorded as 6 months. Further, the “TAC average release in vitro” value (first 3 months) is “about 1.7 μg/day”. Also, under “first month”, the “TAC release in vitro” value turned out to be 2 µg/day. Also, the “TAC steady state release in vitro” value (following 2-3 months) stood at 1.5 µg/day.
